This is an account of results in ChEMBL document CHEMBL5352406 (Eur J Med Chem, 2022).

The nature of assay [1]: Selectivity index, ratio of IC50 for equine serum BuChE to IC50 for CDK9/CyclinT1 (unknown origin).
The test system of a further assay is HCT-116. Nature of the assay: Antiproliferative activity against human HCT-116 cells assessed as cell growth inhibition after 72 hrs by MTT assay. Type of assay: functional.
In a further assay the test system is MCF7. The assay is described as follows: Antiproliferative activity against human MCF7 cells assessed as cell growth inhibition after 72 hrs by MTT assay. The format is functional.
The next assay has as its target Cholinesterase (Equus caballus, UniProt P81908). The assay is described as follows: Inhibition of equine serum BuChE using […] as substrate for 20 mins by Ellman's method.
A further assay has as its system A549. The assay is described as follows: Antiproliferative activity against human A549 cells assessed as cell growth inhibition after 72 hrs by MTT assay. The format is functional.
A further assay deals with CDK2/Cyclin A2 (Homo sapiens, UniProt P24941). The format is protein-complex assay.
Another assay addresses CDK9/cyclin T1 (Homo sapiens, UniProt P50750).
The subject of another assay is SW480. Nature of the assay: Antiproliferative activity against human SW480 cells assessed as cell growth inhibition after 72 hrs by MTT assay. The format is functional.
A further assay concerns the target Acetylcholinesterase (Electrophorus electricus, UniProt O42275). Nature of the assay: Inhibition of electric eel AChE using acetylthiocholine […] as substrate for 20 mins by Ellman's method.
For assay [2], the target named is CDK9/cyclin T1 (Homo sapiens) (UniProt O60563+P50750). Nature of the assay: Inhibition of CDK9/CyclinT1 (unknown origin) at 500 nM by ADP-Glo kinase assay relative to control. Type of assay: protein-complex assay.
Assay [3] in a line: Selectivity index, ratio of IC50 for electric eel AChE to IC50 for CDK9/CyclinT1 (unknown origin).
The nature of assay [4]: Selectivity index, ratio of IC50 for human full length CDK2/CyclinA to IC50 for CDK9/CyclinT1 (unknown origin).

Structures are written as SMILES.

Chain of Acetylcholinesterase (O42275 whole entry): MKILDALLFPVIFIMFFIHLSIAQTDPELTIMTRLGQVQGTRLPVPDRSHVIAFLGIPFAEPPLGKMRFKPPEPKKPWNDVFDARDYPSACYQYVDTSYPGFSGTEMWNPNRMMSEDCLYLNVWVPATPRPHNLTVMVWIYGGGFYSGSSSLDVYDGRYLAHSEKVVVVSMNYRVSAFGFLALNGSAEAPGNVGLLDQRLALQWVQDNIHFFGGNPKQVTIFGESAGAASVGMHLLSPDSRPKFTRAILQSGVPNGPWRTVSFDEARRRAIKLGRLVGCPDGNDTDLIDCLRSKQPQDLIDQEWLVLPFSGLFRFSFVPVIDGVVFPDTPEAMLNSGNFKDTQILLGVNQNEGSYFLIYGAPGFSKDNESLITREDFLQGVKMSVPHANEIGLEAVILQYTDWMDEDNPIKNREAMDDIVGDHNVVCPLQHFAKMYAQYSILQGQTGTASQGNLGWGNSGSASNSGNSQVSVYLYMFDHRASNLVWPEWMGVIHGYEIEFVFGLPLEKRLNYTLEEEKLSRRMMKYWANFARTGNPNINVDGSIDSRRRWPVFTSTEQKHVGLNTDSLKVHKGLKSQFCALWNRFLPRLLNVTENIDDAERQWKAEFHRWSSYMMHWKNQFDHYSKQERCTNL
Chain of Cholinesterase (P81908 whole entry): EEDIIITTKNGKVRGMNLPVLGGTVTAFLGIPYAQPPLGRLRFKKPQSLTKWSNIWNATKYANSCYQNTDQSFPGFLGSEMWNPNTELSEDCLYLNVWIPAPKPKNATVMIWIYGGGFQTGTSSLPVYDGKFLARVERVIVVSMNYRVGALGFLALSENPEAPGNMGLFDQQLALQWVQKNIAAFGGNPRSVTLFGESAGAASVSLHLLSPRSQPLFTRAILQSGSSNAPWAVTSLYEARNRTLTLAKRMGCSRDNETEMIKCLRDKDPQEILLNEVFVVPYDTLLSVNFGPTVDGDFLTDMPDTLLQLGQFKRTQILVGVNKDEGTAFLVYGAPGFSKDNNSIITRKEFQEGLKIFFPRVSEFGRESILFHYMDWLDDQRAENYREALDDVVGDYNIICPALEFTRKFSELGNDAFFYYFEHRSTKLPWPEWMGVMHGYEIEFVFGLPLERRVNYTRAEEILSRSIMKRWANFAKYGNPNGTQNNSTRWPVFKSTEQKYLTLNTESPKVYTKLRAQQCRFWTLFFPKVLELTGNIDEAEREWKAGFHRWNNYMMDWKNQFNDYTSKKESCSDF
Chain of CDK9/cyclin T1 (O60563 whole entry): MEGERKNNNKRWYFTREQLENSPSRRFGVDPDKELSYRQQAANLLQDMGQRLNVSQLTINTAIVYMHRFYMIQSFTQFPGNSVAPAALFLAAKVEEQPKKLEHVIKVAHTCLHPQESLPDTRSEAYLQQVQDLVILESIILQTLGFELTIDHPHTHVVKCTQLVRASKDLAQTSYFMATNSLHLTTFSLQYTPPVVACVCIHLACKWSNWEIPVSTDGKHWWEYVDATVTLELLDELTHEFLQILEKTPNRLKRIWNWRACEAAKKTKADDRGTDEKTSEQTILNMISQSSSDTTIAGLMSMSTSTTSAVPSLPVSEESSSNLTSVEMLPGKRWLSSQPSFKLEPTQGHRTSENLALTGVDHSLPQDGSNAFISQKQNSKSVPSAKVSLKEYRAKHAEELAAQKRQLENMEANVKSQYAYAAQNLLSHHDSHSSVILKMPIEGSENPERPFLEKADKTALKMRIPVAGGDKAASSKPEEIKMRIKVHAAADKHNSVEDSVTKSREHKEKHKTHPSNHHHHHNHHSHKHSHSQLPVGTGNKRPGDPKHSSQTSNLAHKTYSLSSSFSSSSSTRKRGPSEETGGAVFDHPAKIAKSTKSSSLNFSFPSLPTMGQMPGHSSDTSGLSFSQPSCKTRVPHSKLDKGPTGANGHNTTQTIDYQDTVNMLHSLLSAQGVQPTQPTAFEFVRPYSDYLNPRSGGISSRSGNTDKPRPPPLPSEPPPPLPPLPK
Chain of CDK9/cyclin T1 (P50750 whole entry): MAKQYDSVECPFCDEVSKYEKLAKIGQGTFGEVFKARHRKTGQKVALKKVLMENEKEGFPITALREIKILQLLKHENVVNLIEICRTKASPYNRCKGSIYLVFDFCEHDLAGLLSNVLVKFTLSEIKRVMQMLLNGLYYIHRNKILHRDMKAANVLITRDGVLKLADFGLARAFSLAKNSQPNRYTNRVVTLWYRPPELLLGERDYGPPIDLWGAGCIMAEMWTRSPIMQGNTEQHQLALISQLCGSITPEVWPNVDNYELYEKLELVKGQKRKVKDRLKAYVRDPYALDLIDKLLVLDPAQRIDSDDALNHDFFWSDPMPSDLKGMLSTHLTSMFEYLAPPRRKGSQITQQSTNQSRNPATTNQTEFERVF
Description for CDK2/Cyclin A2: Inhibition of human full length CDK2/CyclinA2 by ADP-Glo kinase assay

For the compound `N[C@H]1CCN(c2c3c(nc4ccc(-c5ccnc(NC(=O)C6CC6)c5)cc24)-c2ccccc2CCC3)C1`, in [1], the Selectivity Index amounted to 28. The GI50 in the assay on HCT-116 was 2.67 µM; in the assay with MCF7 it was 2.21 µM; with A549, 1.9 µM; in the assay on SW480, 3.05 µM. Also, the 50% inhibitory concentration (IC50) was 3.34 µM on Cholinesterase, more than 0.5 µM against CDK2/Cyclin A2, 0.111 µM against CDK9/cyclin T1 and more than 50 µM at Acetylcholinesterase.

`N[C@H]1CCN(c2c3c(nc4ccc(-c5ccnc(NC(=O)C6CC6)n5)cc24)-c2ccccc2CCC3)C1`: the GI50 with HCT-116 is more than 10 µM; in the assay with MCF7, 6.33 µM; in the assay on A549, 9.47 µM; with SW480 it was 9.53 µM. Also, the IC50 at Cholinesterase was 12.7 µM; against CDK2/Cyclin A2 it was more than 0.5 µM; against Acetylcholinesterase, more than 50 µM. In addition, in assay [2], the inhibition is 72.7%.

In the case of `CN(C)S(=O)(=O)c1ccc(Nc2cc(-c3ccc4nc5c(c(N6CC[C@H](N)C6)c4c3)CCCCC5)ccn2)cc1`, the values for the Selectivity Index in assay [1], in [3] and in assay [4] were 10, 346 and 0.5, respectively. Further, the GI50 in the assay with HCT-116 is 2.18 µM; with MCF7, 3.11 µM; in the assay on A549, 1.99 µM; in the assay on SW480 it was 1.81 µM. The 50% inhibitory concentration (IC50) is 1.06 µM on Cholinesterase, more than 0.5 µM against CDK2/Cyclin A2, 0.102 µM at CDK9/cyclin T1 and 35.2 µM at Acetylcholinesterase.

With `N[C@H]1CCN(c2c3c(nc4ccc(-c5ccnc(NC(=O)C6CC6)c5)cc24)CCCCC3)C1`, the values for the Selectivity Index in assay [1], in assay [3] and in assay [4] were 894, 14200 and 3, respectively. Also, the 50% growth inhibitory concentration (GI50) with HCT-116 is 0.018 µM; in the assay on MCF7 it was 0.076 µM; in the assay on A549 it was 0.028 µM; in the assay on SW480, 0.033 µM. In addition, the IC50 on Cholinesterase was determined as 1.96 µM; against CDK2/Cyclin A2, 0.00551 µM; at CDK9/cyclin T1, 0.00219 µM; at Acetylcholinesterase, 31.1 µM.

Consider `N[C@H]1CCN(c2c3c(nc4ccc(-c5ccnc(NC(=O)C6CCCCC6)c5)cc24)CCCCC3)C1`, for which the Selectivity Index worked out at 763 in assay [1], 9550 in [3] and 27 in assay [4]. Further, the 50% growth inhibitory concentration (GI50) turned out to be 0.262 µM with HCT-116, 0.404 µM in the assay on MCF7, 0.308 µM with A549 and 1.26 µM in the assay with SW480. Also, the half-inhibitory concentration (IC50) against Cholinesterase stood at 1.66 µM; against CDK2/Cyclin A2 it was 0.0595 µM; at CDK9/cyclin T1 it was 0.00218 µM; against Acetylcholinesterase, 20.8 µM.

`N[C@H]1CCN(c2c3c(nc4ccc(-c5ccnc(NC(=O)C6CC6)c5)cc24)CCCCCC3)C1`: the GI50 turned out to be 0.014 µM in the assay on HCT-116, 0.065 µM in the assay with MCF7, 0.052 µM in the assay on A549 and 0.034 µM in the assay with SW480. Also, the values for the half-inhibitory concentration (IC50) on CDK2/Cyclin A2 and on Acetylcholinesterase were 0.00292 µM and 17.2 µM, respectively. Moreover, the Selectivity Index in assay [3] was 9210; in [4], 2.

In the case of `N[C@H]1CCN(c2c3c(nc4ccc(-c5ccnc(NC(=O)C6CCC6)c5)cc24)CCC3)C1`, the values for the Selectivity Index in assay [1], in assay [3] and in assay [4] were 497, 275 and 13, respectively. Moreover, the GI50 in the assay on HCT-116 amounted to 0.138 µM; in the assay with MCF7 it was 0.333 µM; in the assay on A549, 0.195 µM; in the assay on SW480, 0.456 µM. Also, the IC50 against Cholinesterase was 3.18 µM; at CDK2/Cyclin A2 it was 0.086 µM; at CDK9/cyclin T1, 0.00639 µM; on Acetylcholinesterase, 1.76 µM.

`N[C@H]1CCN(c2c3c(nc4ccc(-c5ccnc(NC(=O)C6CC6)n5)cc24)CCCCCC3)C1`: the values for the Selectivity Index in [1], in [3] and in assay [4] were 948, 7200 and 7, respectively. The 50% growth inhibitory concentration (GI50) stood at 0.014 µM with HCT-116, 0.071 µM with MCF7, 0.064 µM with A549 and 0.018 µM in the assay with SW480. Besides, the 50% inhibitory concentration (IC50) against Cholinesterase is 2.73 µM; at CDK2/Cyclin A2 it was 0.0187 µM; against CDK9/cyclin T1, 0.00288 µM; against Acetylcholinesterase it was 20.7 µM.

For `N[C@H]1CCN(c2c3c(nc4ccc(-c5ccnc(C(=O)NC6CC6)c5)cc24)CCCCC3)C1`, the concentration for 50% growth inhibition (GI50) in the assay on HCT-116 was 4.74 µM; in the assay on MCF7, 10.4 µM; in the assay on A549 it was more than 10 µM; in the assay on SW480 it was 9.12 µM. For the same compound, the IC50 on Cholinesterase is 4.99 µM; against CDK2/Cyclin A2, more than 0.5 µM; at CDK9/cyclin T1, more than 0.5 µM; against Acetylcholinesterase it was 5.57 µM.

For the compound `N[C@H]1CCN(c2c3c(nc4ccc(-c5cc(NC(=O)C6CC6)ncn5)cc24)CCCCC3)C1`, the Selectivity Index in [1] amounted to 669; in assay [3], 1250; in [4] it was 3. The GI50 amounted to 0.201 µM with HCT-116, 0.161 µM in the assay on MCF7, 0.166 µM in the assay on A549 and 0.316 µM in the assay on SW480. The IC50 is 3.85 µM against Cholinesterase, 0.0147 µM against CDK2/Cyclin A2, 0.00575 µM on CDK9/cyclin T1 and 7.2 µM against Acetylcholinesterase.

For `N[C@H]1CCN(c2c3c(nc4ccc(-c5ccccc5)cc24)CCCCC3)C1`, the GI50 in the assay on HCT-116 amounted to 5.88 µM; in the assay on MCF7, 4.06 µM; with A549 it was 9.53 µM; with SW480 it was 2.93 µM. The IC50 was 0.133 µM against Cholinesterase, more than 0.5 µM at CDK2/Cyclin A2, more than 0.5 µM at CDK9/cyclin T1 and 19.1 µM at Acetylcholinesterase.

Consider `N[C@H]1CCN(c2c3c(nc4ccc(-c5ccnc(NC(=O)C6CC6)c5)cc24)CCCC3)C1`, for which the concentration for 50% growth inhibition (GI50) came out at 0.029 µM with HCT-116, 0.109 µM in the assay on MCF7 and 0.328 µM in the assay on SW480. Also, on CDK9/cyclin T1, the IC50 turned out to be 0.00223 µM.

Regarding `N[C@H]1CCN(c2c3c(nc4ccc(-c5ccncc5)cc24)CCCCC3)C1`, the Selectivity Index in assay [1] amounted to 51; in [3], 2970. Also, the GI50 was determined as 0.272 µM in the assay with HCT-116, 0.424 µM in the assay with MCF7, 0.393 µM with A549 and 0.458 µM in the assay on SW480. The IC50 on Cholinesterase is 0.422 µM; at CDK2/Cyclin A2 it was more than 0.5 µM; against CDK9/cyclin T1, 0.00835 µM; against Acetylcholinesterase, 24.8 µM.

For `N[C@H]1CCN(c2c3c(nc4ccc(-c5ccnc(NC(=O)C6CCCC6)c5)cc24)CCCCC3)C1`, the Selectivity Index in [1] was determined as 425; in [3] it was 6180; in assay [4], 6. The GI50 was 0.134 µM with HCT-116, 0.21 µM with MCF7, 0.083 µM in the assay with A549 and 0.065 µM in the assay with SW480. For the same compound, the IC50 at Cholinesterase was determined as 1.18 µM; at CDK2/Cyclin A2 it was 0.0176 µM; at CDK9/cyclin T1, 0.00277 µM; at Acetylcholinesterase it was 17.1 µM.

For `N[C@H]1CCN(c2c3c(nc4ccc(-c5ccnc(NC(=O)C6CC6)c5)cc24)CCC3)C1`, the Selectivity Index is 1790 in assay [1], 671 in assay [3] and 75 in [4]. For the same compound, the 50% growth inhibitory concentration (GI50) was 0.073 µM in the assay on HCT-116, 0.203 µM with MCF7, 0.191 µM with A549 and 0.251 µM in the assay on SW480. Moreover, the IC50 came out at 6.01 µM on Cholinesterase, 0.252 µM on CDK2/Cyclin A2, 0.00336 µM against CDK9/cyclin T1 and 2.25 µM at Acetylcholinesterase.

Turning to `N[C@H]1CCN(c2c3c(nc4ccc(-c5ccnc(NC(=O)C6CCC6)c5)cc24)CCCCCC3)C1`, the Selectivity Index in assay [1] was found to be 235; in assay [3], 8920; in assay [4], 3. For the same compound, the 50% growth inhibitory concentration (GI50) with HCT-116 is 0.046 µM; in the assay with MCF7, 0.108 µM; with A549, 0.109 µM; with SW480 it was 0.118 µM. The IC50 against Cholinesterase amounted to 0.698 µM; against CDK2/Cyclin A2, 0.00774 µM; against CDK9/cyclin T1, 0.00297 µM; against Acetylcholinesterase, 26.5 µM.

As for `N[C@H]1CCN(c2c3c(nc4ccc(-c5cccnc5)cc24)CCCCC3)C1`, the GI50 in the assay with HCT-116 was more than 10 µM; in the assay with MCF7, more than 10 µM; in the assay on A549, more than 10 µM; with SW480, more than 3 µM. The 50% inhibitory concentration (IC50) on Cholinesterase is 0.722 µM; at CDK2/Cyclin A2 it was more than 0.5 µM; at CDK9/cyclin T1, more than 0.5 µM; against Acetylcholinesterase it was 13.7 µM.

As to `N[C@@H]1CCN(c2c3c(nc4ccc(-c5ccnc(NC(=O)C6CC6)c5)cc24)CCCCC3)C1`, the Selectivity Index is 2560 in assay [1] and 3 in assay [4]. In addition, the 50% growth inhibitory concentration (GI50) in the assay with HCT-116 turned out to be 0.039 µM; in the assay with MCF7 it was 0.08 µM; in the assay on A549, 0.041 µM; in the assay with SW480 it was 0.049 µM. Further, the 50% inhibitory concentration (IC50) on Cholinesterase was determined as 4.78 µM; against CDK2/Cyclin A2 it was 0.00646 µM.

On to `N[C@H]1CCN(c2c3c(nc4ccc(-c5ccnc(NC(=O)C6CCC6)c5)cc24)CCCCC3)C1`, for which the Selectivity Index came out at 288 in assay [1], 4290 in [3] and 3 in [4]. Moreover, the GI50 amounted to 0.086 µM with HCT-116, 0.168 µM in the assay with MCF7, 0.077 µM in the assay with A549 and 0.08 µM in the assay with SW480. Also, the 50% inhibitory concentration (IC50) is 1.18 µM against Cholinesterase, 0.0107 µM at CDK2/Cyclin A2, 0.00411 µM at CDK9/cyclin T1 and 17.6 µM against Acetylcholinesterase.

With `N[C@H]1CCN(c2c3c(nc4ccc(-c5nccc(NC(=O)C6CC6)n5)cc24)CCCCC3)C1`, the GI50 is more than 3 µM in the assay on HCT-116, 8.39 µM in the assay with MCF7, more than 10 µM in the assay with A549 and more than 3 µM with SW480. Further, the IC50 against Cholinesterase was 2.51 µM; at CDK2/Cyclin A2, more than 0.5 µM; against CDK9/cyclin T1 it was more than 0.5 µM; against Acetylcholinesterase, 17.6 µM.
